For two molecules, IC50, inhibition and Activity results are on record in ChEMBL document CHEMBL5131443, “Discovery of a benzimidazole-based dual FLT3/TrKA inhibitor targeting acute myeloid leukemia” (Bioorg Med Chem, 2022).

The target of series [1] is T1, Receptor-type tyrosine-protein kinase FLT3 (Homo sapiens, UniProt P36888, D835Y).
The target of series [2] is T2, Receptor-type tyrosine-protein kinase FLT3 (Homo sapiens, UniProt P36888). In kind it is cell-based, RS4-11.
Series [3] deals with T3, Receptor-type tyrosine-protein kinase FLT3 (Homo sapiens, UniProt P36888, ITD). In kind it is cell-based, MV4-11.
In series [4] the target is T1, Receptor-type tyrosine-protein kinase FLT3. This is another data set of the same source.
Series [5] deals with MOLM-13. Put plainly: Inhibition of colony formation in human MOLM-13 cells at 500 nM measured after 7 days. It is filed as functional, cell-based. Particulars: time 7.0 day.
Series [6] deals with Serine/threonine-protein kinase B-raf (Homo sapiens) (UniProt P15056). Put plainly: Inhibition of B-raf (unknown origin) at 1 uM.
Series [7] has as its target BDNF/NT-3 growth factors receptor (Homo sapiens) (UniProt Q16620). The series is described as follows: Inhibition of human recombinant TrkB expressed in baculovirus expression system at 1 uM by LanthaScreen assay.
Series [8] deals with CDK2/Cyclin A2 (Homo sapiens) (UniProt P24941+P20248). The series is described as follows: Inhibition of His-tagged recombinant full length human CDK2/CyclinA expressed in baculovirus expression system at 1 uM by LanthaScreen assay.
Series [9] deals with MOLM-13. The series is described as follows: cells. Particulars: Homo sapiens, MOLM-13, 72 h.
For series [10], the system named is Receptor-type tyrosine-protein kinase FLT3 (Homo sapiens), P36888 [UNDEFINED MUTATION]. The series is described as follows: Inhibition of FLT3-ITD mutant in human MOLM-13 cells assessed as decrease in p-S6 kinase level measured after 24 to 48 hrs by Western blot analysis. In kind it is cell-based. As to conditions: dose 10-100 nM, time 24-48 hrs, DDE = dose-dependent effect.

Series [11] relates to MV4-11. The series is described as follows: Induction of apoptosis in human MV4-11 cells assessed as increase number of apoptotic cells at 10 to 50 nM measured after 72 hrs by propidium iodide staining based flow cytometry. It is filed as functional, cell-based. As to conditions: dose 10-50 nM.
Series [12] relates to MV4-11. The series is described as follows: Cell cycle arrest in human MV4-11 cells assessed as accumulation at G0/G1 phase at 10 to 50 nM measured after 72 hrs by flow cytometry. In kind it is functional, cell-based. Particulars: dose 10-50 nM.
The test system of series [13] is BNL. The series is described as follows: Cytotoxicity against mouse BNL cells assessed as cell viability at 10 to 50 nM measured after 72 hrs by ATP Cell titer-Glo assay. As to conditions: 0.05 µM, dose 10-50 nM. It is filed as toxicity, cell-based.
The target in series [14] is Tyrosine-protein kinase ABL1 (Homo sapiens) (UniProt P00519). Put plainly: Inhibition of His-tagged recombinant human ABL1 at 1 uM.
In series [15] the test system is MV4-11. Put plainly: Induction of apoptosis in human MV4-11 cells assessed as increase number of necrotic cells at 10 to 50 nM measured after 72 hrs by propidium iodide staining based flow cytometry. In kind it is functional, cell-based. As to conditions: dose 10-50 nM.
The target of series [16] is Fibroblast growth factor receptor 3 (Homo sapiens) (UniProt P22607). Put plainly: Inhibition of FGFR3 (unknown origin) at 1 uM.
Series [17] concerns the target Serine/threonine-protein kinase pim-1 (Homo sapiens) (UniProt P11309). The series is described as follows: Inhibition of human recombinant PIM1 expressed in baculovirus expression system at 1 uM by LanthaScreen assay.
The target of series [18] is Platelet-derived growth factor receptor alpha (Homo sapiens) (UniProt P16234). The series is described as follows: Inhibition of PDGFRA (unknown origin) at 1 uM.
Series [19] has as its target High affinity nerve growth factor receptor (Homo sapiens, UniProt P04629).
Description: Inhibition of recombinant His-tagged human TrKA expressed in baculovirus expression system by LanthaScreen assay
Series [20] has as its target Serine/threonine-protein kinase D2 (Homo sapiens) (UniProt Q9BZL6). The series is described as follows: Inhibition of human recombinant PRKD2 expressed in baculovirus expression system at 1 uM by LanthaScreen assay.
For series [21], the target named is Vascular endothelial growth factor receptor 2 (Homo sapiens) (UniProt P35968). The series is described as follows: Inhibition of human recombinant KDR expressed in baculovirus expression system at 1 uM by LanthaScreen assay.
The target in series [22] is Mast/stem cell growth factor receptor Kit (Homo sapiens) (UniProt P10721). The series is described as follows: Inhibition of c-Kit (unknown origin) at 1 uM.
Series [23] addresses T3, Receptor-type tyrosine-protein kinase FLT3.
For series [24], the system named is KM12. Put plainly: Anticancer activity against human KM12 cells assessed as cell viability after 72 hrs by ATP Cell Titer G1oTM assay. In kind it is functional, cell-based. As to conditions: KM12, 72 h.
For series [25], the system named is MV4-11. Put plainly: cells. As to conditions: Homo sapiens, MV4-11, 72 h.
Series [26] relates to Receptor-type tyrosine-protein kinase FLT3 (Homo sapiens), P36888 [UNDEFINED MUTATION]. The series is described as follows: Inhibition of FLT3-ITD mutant in human MV4-11 cells assessed as decrease in p-S6 kinase level measured after 24 to 48 hrs by Western blot analysis. In kind it is cell-based. Particulars: dose 10-100 nM, time 24-48 hrs, DDE = dose-dependent effect.
For series [27], the system named is H9c2. Put plainly: Cytotoxicity against rat H9c2 cells assessed as cell viability at 10 to 50 nM measured after 72 hrs by ATP Cell titer-Glo assay. As to conditions: h9c2, 72 h, 0.05 µM, dose 10-50 nM. It is filed as toxicity, cell-based.
The target of series [28] is Vascular endothelial growth factor receptor 3 (Homo sapiens) (UniProt P35916). The series is described as follows: Inhibition of human recombinant FLT4 expressed in baculovirus expression system at 1 uM by LanthaScreen assay.
The test system of series [29] is MOLM-13. The series is described as follows: Induction of apoptosis in human MOLM-13 cells assessed as increase number of apoptotic cells at 10 to 50 nM measured after 72 hrs by propidium iodide staining based flow cytometry. Particulars: dose 10-50 nM. In kind it is functional, cell-based.
For series [30], the target named is Tyrosine-protein kinase Lck (Homo sapiens) (UniProt P06239). Put plainly: Inhibition of human recombinant LCK expressed in baculovirus expression system at 1 uM by LanthaScreen assay.
The target in series [31] is Vascular endothelial growth factor receptor 1 (Homo sapiens) (UniProt P17948). The series is described as follows: Inhibition of human recombinant FLT1 expressed in baculovirus expression system at 1 uM by LanthaScreen assay.
Series [32] concerns Receptor-type tyrosine-protein kinase FLT3 (Homo sapiens), P36888 [UNDEFINED MUTATION]. Put plainly: Inhibition of FLT3-ITD mutant in human MOLM-13 cells assessed as decrease in Erk1/2 phosphorylation measured after 24 to 48 hrs by Western blot analysis. As to conditions: dose 10-100 nM, time 24-48 hrs, DDE = dose-dependent effect. It is filed as cell-based.
Series [33] has as its system MOLM-13. The series is described as follows: Induction of apoptosis in human MOLM-13 cells assessed as increase number of necrotic cells at 10 to 50 nM measured after 72 hrs by propidium iodide staining based flow cytometry. Particulars: dose 10-50 nM. It is filed as functional, cell-based.
Series [34] deals with Insulin-like growth factor 1 receptor (Homo sapiens) (UniProt P08069). The series is described as follows: Inhibition of human recombinant IGF1R expressed in baculovirus expression system at 1 uM by LanthaScreen assay.
The target of series [35] is Platelet-derived growth factor receptor beta (Homo sapiens) (UniProt P09619). The series is described as follows: Inhibition of human recombinant PDGFRB expressed in baculovirus expression system at 1 uM by LanthaScreen assay.
The target of series [36] is Proto-oncogene tyrosine-protein kinase Src (Homo sapiens) (UniProt P12931). Put plainly: Inhibition of human recombinant Src expressed in baculovirus expression system at 1 uM by LanthaScreen assay.
Series [37] concerns MV4-11. The series is described as follows: Inhibition of colony formation in human MV4-11 cells at 500 nM measured after 14 days. In kind it is functional, cell-based. Particulars: time 14.0 day.
Series [38] has as its system Receptor-type tyrosine-protein kinase FLT3 (Homo sapiens), P36888 [UNDEFINED MUTATION]. Put plainly: Inhibition of FLT3-ITD mutant in human MV4-11 cells assessed as decrease in Erk1/2 phosphorylation measured after 24 to 48 hrs by Western blot analysis. It is filed as cell-based. As to conditions: dose 10-100 nM, time 24-48 hrs, DDE = dose-dependent effect.
The target of series [39] is NT-3 growth factor receptor (Homo sapiens) (UniProt Q16288). Put plainly: Inhibition of human recombinant TrkC expressed in baculovirus expression system at 1 uM by LanthaScreen assay.
Series [40] concerns the target T2, Receptor-type tyrosine-protein kinase FLT3.
Description: Inhibition of recombinant His-tagged human FLT3 (564 to 958 residues) expressed in baculovirus expression system by LanthaScreen assay
Series [41] concerns MOLM-13. The series is described as follows: Cell cycle arrest in human MOLM-13 cells assessed as accumulation at G0/G1 phase at 10 to 50 nM measured after 72 hrs by flow cytometry. In kind it is functional, cell-based. Particulars: dose 10-50 nM.

Activity calls are given as the source filed them. No cut-off for these calls is given here.

Sequence of Serine/threonine-protein kinase D2 (Homo sapiens) (Q9BZL6 whole entry): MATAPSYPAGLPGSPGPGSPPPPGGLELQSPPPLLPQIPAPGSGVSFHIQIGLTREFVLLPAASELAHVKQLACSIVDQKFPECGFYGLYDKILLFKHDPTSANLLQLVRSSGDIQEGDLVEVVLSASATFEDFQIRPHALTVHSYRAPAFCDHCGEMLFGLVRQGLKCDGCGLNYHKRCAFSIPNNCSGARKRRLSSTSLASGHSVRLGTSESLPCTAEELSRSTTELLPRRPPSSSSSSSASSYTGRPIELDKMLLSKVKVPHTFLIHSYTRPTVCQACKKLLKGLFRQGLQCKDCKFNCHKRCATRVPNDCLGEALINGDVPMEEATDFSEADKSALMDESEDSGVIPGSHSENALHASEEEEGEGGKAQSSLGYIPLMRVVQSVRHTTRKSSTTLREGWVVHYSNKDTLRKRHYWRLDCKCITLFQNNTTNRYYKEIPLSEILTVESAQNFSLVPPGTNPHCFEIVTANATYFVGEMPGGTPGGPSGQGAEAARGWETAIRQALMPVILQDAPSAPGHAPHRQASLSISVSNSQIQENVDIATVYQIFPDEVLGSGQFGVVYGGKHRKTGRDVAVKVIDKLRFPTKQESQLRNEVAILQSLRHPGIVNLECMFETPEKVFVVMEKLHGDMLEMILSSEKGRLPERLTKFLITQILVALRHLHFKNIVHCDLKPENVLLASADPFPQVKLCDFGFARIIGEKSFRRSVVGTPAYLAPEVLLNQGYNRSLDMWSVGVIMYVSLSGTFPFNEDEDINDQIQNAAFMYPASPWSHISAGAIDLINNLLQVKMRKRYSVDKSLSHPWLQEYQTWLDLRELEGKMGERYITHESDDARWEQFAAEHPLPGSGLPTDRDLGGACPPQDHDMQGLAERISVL
Sequence of Proto-oncogene tyrosine-protein kinase Src (Homo sapiens) (P12931 2-536 limits assumed): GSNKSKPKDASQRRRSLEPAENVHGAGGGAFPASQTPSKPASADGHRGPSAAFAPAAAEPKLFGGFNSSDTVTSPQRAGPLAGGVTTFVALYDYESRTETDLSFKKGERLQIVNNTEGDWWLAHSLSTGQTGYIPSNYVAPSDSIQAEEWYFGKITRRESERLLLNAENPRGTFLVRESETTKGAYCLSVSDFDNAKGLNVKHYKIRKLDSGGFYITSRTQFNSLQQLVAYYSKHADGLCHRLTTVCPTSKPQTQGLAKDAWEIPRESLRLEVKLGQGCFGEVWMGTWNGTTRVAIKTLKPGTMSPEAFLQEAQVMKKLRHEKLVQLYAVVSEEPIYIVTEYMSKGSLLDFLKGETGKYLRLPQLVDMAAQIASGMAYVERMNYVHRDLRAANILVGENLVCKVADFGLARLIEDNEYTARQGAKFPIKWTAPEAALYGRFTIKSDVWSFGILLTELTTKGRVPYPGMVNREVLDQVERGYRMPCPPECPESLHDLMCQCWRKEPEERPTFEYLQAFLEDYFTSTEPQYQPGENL
Sequence of Insulin-like growth factor 1 receptor (Homo sapiens) (P08069 31-736 limits assumed): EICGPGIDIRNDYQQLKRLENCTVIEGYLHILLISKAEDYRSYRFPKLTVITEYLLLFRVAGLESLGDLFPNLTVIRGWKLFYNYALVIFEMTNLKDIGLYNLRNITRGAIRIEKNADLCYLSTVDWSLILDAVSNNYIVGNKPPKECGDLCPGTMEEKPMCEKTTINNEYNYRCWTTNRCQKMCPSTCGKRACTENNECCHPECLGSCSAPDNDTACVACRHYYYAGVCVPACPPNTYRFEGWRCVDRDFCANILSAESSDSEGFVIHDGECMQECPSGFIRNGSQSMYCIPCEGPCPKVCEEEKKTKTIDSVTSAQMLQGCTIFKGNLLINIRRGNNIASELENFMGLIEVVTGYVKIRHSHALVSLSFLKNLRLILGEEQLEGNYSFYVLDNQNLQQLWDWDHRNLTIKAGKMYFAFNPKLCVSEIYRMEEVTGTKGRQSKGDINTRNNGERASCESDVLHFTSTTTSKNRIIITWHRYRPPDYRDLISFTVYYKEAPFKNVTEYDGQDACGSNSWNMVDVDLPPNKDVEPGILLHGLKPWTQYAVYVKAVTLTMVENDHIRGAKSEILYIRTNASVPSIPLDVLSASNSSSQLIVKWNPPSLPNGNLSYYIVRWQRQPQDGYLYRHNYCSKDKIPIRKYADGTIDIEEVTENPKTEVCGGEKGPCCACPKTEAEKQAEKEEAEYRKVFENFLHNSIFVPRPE
Sequence of Insulin-like growth factor 1 receptor (Homo sapiens) (P08069 741-1367 limits assumed): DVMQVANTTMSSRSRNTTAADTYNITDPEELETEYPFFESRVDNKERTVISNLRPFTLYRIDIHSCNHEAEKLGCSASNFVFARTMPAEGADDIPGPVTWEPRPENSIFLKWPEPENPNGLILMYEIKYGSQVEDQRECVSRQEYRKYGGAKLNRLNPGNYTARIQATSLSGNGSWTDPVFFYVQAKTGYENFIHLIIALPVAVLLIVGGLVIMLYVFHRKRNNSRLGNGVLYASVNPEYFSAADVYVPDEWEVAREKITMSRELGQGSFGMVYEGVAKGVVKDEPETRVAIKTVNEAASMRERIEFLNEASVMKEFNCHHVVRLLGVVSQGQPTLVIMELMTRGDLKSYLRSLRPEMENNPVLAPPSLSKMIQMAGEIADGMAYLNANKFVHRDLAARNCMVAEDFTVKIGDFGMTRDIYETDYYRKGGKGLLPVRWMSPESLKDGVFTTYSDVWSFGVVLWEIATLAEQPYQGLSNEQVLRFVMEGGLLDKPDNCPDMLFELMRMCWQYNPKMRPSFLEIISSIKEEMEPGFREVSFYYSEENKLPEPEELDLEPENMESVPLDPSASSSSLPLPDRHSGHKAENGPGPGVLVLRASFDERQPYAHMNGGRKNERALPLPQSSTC
Sequence of Tyrosine-protein kinase ABL1 (Homo sapiens) (P00519 whole entry): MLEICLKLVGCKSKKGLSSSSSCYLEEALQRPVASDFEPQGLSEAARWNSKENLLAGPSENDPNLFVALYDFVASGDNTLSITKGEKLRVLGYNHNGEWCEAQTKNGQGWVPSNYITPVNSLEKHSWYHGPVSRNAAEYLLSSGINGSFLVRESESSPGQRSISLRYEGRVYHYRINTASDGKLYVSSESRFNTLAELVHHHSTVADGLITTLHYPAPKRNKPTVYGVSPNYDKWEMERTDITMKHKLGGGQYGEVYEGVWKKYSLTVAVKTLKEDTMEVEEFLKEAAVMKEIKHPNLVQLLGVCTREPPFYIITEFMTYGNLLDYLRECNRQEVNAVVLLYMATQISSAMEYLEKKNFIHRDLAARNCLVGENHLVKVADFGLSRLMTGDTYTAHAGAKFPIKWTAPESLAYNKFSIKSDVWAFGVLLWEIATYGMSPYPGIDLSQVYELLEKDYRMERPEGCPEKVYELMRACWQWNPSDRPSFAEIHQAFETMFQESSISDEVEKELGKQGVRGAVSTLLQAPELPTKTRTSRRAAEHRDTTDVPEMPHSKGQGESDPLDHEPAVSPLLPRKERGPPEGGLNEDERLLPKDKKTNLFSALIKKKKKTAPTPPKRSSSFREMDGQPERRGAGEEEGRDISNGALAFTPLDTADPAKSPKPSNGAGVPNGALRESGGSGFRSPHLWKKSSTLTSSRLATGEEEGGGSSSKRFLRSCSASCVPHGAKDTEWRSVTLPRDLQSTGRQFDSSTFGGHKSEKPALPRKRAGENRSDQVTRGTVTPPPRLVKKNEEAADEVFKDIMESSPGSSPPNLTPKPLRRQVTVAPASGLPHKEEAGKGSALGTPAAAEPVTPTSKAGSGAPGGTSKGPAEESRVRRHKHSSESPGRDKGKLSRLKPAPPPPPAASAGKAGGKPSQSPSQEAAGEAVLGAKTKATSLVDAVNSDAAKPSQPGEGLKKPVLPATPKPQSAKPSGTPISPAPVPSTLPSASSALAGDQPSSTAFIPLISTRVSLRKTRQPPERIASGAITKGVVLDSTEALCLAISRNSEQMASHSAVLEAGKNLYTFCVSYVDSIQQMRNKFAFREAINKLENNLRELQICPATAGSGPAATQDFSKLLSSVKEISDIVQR
Sequence of Serine/threonine-protein kinase pim-1 (Homo sapiens) (P11309 whole entry, looked up): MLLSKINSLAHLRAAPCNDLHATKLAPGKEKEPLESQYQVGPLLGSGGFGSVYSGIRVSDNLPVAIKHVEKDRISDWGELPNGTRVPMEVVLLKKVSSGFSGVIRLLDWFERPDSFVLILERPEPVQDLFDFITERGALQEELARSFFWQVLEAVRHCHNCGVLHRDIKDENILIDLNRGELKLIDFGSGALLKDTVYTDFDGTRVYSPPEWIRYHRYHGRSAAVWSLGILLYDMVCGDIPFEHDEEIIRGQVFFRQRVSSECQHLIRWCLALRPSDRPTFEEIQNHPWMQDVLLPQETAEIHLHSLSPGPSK
Sequence of BDNF/NT-3 growth factors receptor (Homo sapiens) (Q16620 32-822 limits assumed): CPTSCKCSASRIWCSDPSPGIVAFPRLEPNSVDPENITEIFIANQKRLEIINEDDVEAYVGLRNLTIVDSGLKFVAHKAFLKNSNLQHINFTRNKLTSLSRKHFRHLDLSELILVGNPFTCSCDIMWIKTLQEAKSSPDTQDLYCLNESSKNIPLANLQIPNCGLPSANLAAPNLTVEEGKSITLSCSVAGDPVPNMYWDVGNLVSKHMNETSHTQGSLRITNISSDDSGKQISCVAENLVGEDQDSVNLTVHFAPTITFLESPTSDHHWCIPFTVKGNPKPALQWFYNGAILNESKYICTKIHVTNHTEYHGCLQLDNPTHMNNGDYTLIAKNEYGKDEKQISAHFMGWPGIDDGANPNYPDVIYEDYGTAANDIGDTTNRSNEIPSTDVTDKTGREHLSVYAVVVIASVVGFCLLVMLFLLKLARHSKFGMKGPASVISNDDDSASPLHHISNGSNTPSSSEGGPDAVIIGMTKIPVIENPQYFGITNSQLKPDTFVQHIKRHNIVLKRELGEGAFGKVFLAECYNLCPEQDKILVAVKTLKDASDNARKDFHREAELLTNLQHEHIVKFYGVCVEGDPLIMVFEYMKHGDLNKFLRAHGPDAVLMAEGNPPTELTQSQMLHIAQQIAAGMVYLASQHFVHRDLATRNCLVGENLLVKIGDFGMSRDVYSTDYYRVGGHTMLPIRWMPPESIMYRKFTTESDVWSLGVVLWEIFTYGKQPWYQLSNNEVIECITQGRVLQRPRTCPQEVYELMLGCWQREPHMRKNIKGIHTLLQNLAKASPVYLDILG

Take `CCc1nc(C(N)=O)c(Cc2ccc(N3CCC(N4CCN(C)CC4)CC3)c(OC)c2)nc1CN1CCOCC1`: the concentration for half-maximal inhibition (IC50) in [1] came out at 1.6 nM; in series [2] it was 0.29 nM; in [3], 1.8 nM.
For `CC(=O)Nc1ccc(-n2cnc3cc(-c4ccc(OCCN5CCCCC5)cc4)ccc32)cc1`, the IC50 in series [4] was found to be 92.5 nM; in series [9], 38.8 nM; in series [19], 23.6 nM; in series [23] it was 97.2 nM; in series [24] it was 358 nM; in series [25], 54.9 nM. Also, half-maximal inhibition in [40] (IC50) was put at 43.8 nM. Besides, the inhibition entry in series [5] and in series [37] was “Active” each time. Besides, the inhibition in series [6] was 5%; in [7], 70%; in series [8] it was 2%; in series [10] it was “Dde”; in series [14], 63%; in series [16], 13%. Further, the inhibition in series [17] was 9%; in series [18] it was 41%; in series [20], 19%; in series [21], 77%; in [22], 36%; in series [26], “Dde”. The inhibition was 24% in series [28]; 78% in series [30]; 13% in series [31]; “Dde” in series [32]; 11% in series [34]; 33% in series [35]. Besides, the figures for the inhibition in series [36], in series [38] and in series [39] were 27%, “Dde” and 79%, respectively. Besides, the outcome in series [11], in [12], in series [15], in series [29], in series [33] and in series [41] was Active. Besides, the Activity result in [13] and in series [27] was “Non-Toxic” throughout.
